From patent US12655171B2, “Compounds for activating invariant natural killer T-cells and methods of use in eliminating inflammatory senescent cells” (Deciduous Therapeutics, Inc., priority 2021, dated 2026)

What was measured:
primary human iNKT cells = assay: Cytokine secretion of primary human iNKT cells co-cultured with drug-loaded BWSTIM cells; format: cell-based; details: for secretion of IFNγ / secretion of IL-4 / secretion of IL-6 / secretion of TNFα: GVK compounds vs absence of drug loading, α-GalCer vs GVK compounds, media collected 2 days later, FIG. 6C; for Primary iNKT cytokine release: IL-4, IL-6, IFNγ or TNFα
Procedure: In order to determine the activation profile induced by the compounds described herein, primary human iNKT cells were co-cultured with drug-loaded BWSTIM cells.
Day 0: PBMCs were isolated from human blood using the STEMCELL TECHNOLOGIES™ SepMate™ PBMC isolation system. iNKT cells were then selected using the Miltenyi NKT magnetic cell separation kit.
Day 2: DCD molecules or α-GalCer were both dissolved in DMSO at a 5 mg/mL stock solution. BWSTIM cells were fixed with mitomycin C, then loaded with 10 μg/mL of DCD molecules or α-GalCer for 4 hours at 37° C. at a concentration of 20 k cells/well in 200 μL of media in a u-bottom 96 well dish. Cells were co-cultured with 80 k 6B11+ selected primary human iNKT cells.
D4: Media was collected. Cytokines were measured using the Satorious 4Plex kit on the iQue3 cytometer.
GVK molecules or α-GalCer were both dissolved in DMSO at a 5 mg/mL stock solution. BWSTIM cells were loaded with compounds for 4 hours at 37° C. at a concentration of 20 k cells/well in 200 μL of media in a u-bottom 96 well dish. Cells were co-cultured with 100 k 6B11+ selected primary human iNKT cells. Media was collected 2 days later. Cytokines were measured using the Satorious 4Plex kit on the iQue3 cytometer.

DN3.2 = assay: IL-2 Secretion (A20 + DN3.2); format: cell-based, mouse
human iTCR [1] = assay: In vitro activation of human iTCR through Jurkat reporter cell line (JiNKT, GFP under NFkB promoter) with drug-loaded BWSTIM cells; format: cell-based; details: 1 μg/mL; for GFP expression compared to the negative control: BWSTIM + JiNKT, 24 hours, FIG. 6A; for % GFP hiNKT binding (BWSTIM + JiNKT) 1 μg/mL, away from negative control: difference from negative control
Procedure: In order to determine the human iTCR activation potential induced by the compounds described herein, a jurkat cell line (JiNKT) was transfected with the human iTCR, and GFP under the NFkB promoter (cell line licensed from the Medical University of Vienna). A BWS147 cell line (BWSTIM) was also transfected with CD80 and CD1d to act as the antigen-presenting cell.
(§1) DCD molecules or α-GalCer were both dissolved in DMSO at a 5 mg/mL stock solution. BWSTIM cells were loaded with DCD molecules or α-GalCer at varying concentrations for 4 hours at 37° C. at a concentration of 20 k cells/well in 200 μL of media in a u-bottom 96 well dish. BWSTIM cells were washed 2× with media, then incubated with JiNKT cells at a concentration of 80 k cells/well in a u-bottom 96 well dish. Cells were co-cultured for 18 to 24 hours. The percentage of cells expressing high levels of GFP was measured through flow cytometry (after gating out the mCD45+ BWSTIM cells).
(§2) A jurkat cell line (JiNKT) was transfected with the human iTCR, and GFP under the NFkB promoter. A BWS147 cell line (BWSTIM) was also transfected with CD80 and CD1d to act as the antigen-presenting cell. A mouse iNKT hybridoma cell line (DN3.2) was also used as the iNKT. […]
as §1, with “GVK” for “DCD”, “compounds” for “DCD molecules or α-GalCer at varying concentrations”, “for” for “for 18 to”, “cytometry. 1 μg/mL of molecule GVK1a, GVK1b, GVK1c, or GVK1f was incubated with BWSTIM+JiNKT, and compared to α-GalCer.” for “cytometry (after gating out the mCD45+ BWSTIM cells).”

senescent cells in eWAT = assay: Diet induced obesity (HFD) mouse model: senescent cells (C12FDG+) in eWAT; format: in vivo, C57BL/6J mice; details: HFD mice, four days post-injection; FIG. 5E
Procedure: (§3) Senescence is a feature of pre-adipocytes in obese individuals. To study the efficacy of the molecules described herein in decreasing senescence in fat, a diet induced obesity high fat diet (HFD) mouse model was used. 22-week-old HFD mice were injected with α-GalCer as a control and compared with the compounds of the present disclosure. The blood and spleen (or adipose tissue) were collected to measure iNKT activation and expansion, respectively. Cells in the eWAT (adipose tissue) were also collected and measured for % senescent cells. HFD mice were compared to non-HFD (normal diet) mice.
(§4) 22-week-old C57BL/6J mice on a chow or high-fat diet (HFD) were injected (I.P) with […] of α-GalCer, compound DCD-101 or compound DCD-154. Molecules were either dissolved in DMSO at a 5 mg/mL stock solution, or formulated into liposomes through thin-film rehydration, then extrusion through 200 nm filters. Liposome-based formulations were constructed using soy phosphatidylcholine, cholesterol, and DCD or α-GalCer in a 2:1:0.15 ratio. Two or twenty hours post-injection, blood was collected from the tail to measure the level of IFNγ using ELISA. Four days post-injection, mice were sacrificed to collect eWAT or spleen. Spleen was used to measure the number of iNKT cells, and eWAT was used to measure the number of iNKT cells and senescent cells using flow cytometry. iNKT cells were identified in the digested adipose tissue by gating live cells and mouse CD1d-α-GalCer tetramer+ cells. Senescent cells were measured withing the processes adipose tissue by selecting mCD45− cells, and C12FDG^HIGH cells.

senescent cells = assay: Selective killing of senescent cells in vitro by activated human iNKT cells; format: cell-based
Procedure: Human iNKT cells were isolated and activated by incubation with α-GalCer. Activated iNKT cells were combined with samples containing healthy cells and senescent cells.

IFNγ = assay: Diet induced obesity (HFD) mouse model: serum IFNγ (ELISA); format: in vivo, C57BL/6J mice
Procedure: as §3, §4

iNKT cells = assay: Diet induced obesity (HFD) mouse model: iNKT cell expansion in spleen or eWAT; format: in vivo, C57BL/6J mice; details: HFD mice, I.P. 2 g, four days post-injection
Procedure: as §3, §4

human iTCR [2] = assay: % GFP hiNKT binding (recombinant protein CD1d + JiNKT); format: cell-based
mouse iTCR = assay: In vitro activation of mouse iTCR, DN3.2 iNKT hybridoma with drug-loaded BWSTIM cells, IL-2 secretion; format: cell-based; details: 48 hours co-culture; FIG. 6B
Procedure: In order to determine the mouse iTCR activation potential induced by the compounds described herein, a mouse iNKT hybridoma cell line (DN3.2) from the La Jolla Institute for Allergy and Immunology were used as the iNKT. The BWS147 cell line (BWSTIM) with CD80 and CD1d acted as the antigen-presenting cell.
(§5) DCD molecules or α-GalCer were both dissolved in DMSO at a 5 mg/mL stock solution. BWSTIM cells were loaded with DCD molecules or α-GalCer of varying concentrations for 4 hours at 37° C. at a concentration of 20 k cells/well in 200 μL of media in a u-bottom 96 well dish. BWSTIM cells were washed 2× with media, then incubated with DN3.2 cells at a concentration of 80 k cells/well in a u-bottom 96 well dish. Cells were co-cultured for 48 hours. Media was collected and IL-2 was measured using the CisBio HTRF ELISA detection kit.
as §2
as §5, with “GVK” for “DCD”, “compounds” for “DCD molecules or α-GalCer of varying concentrations”

Row | SMILES | secretion of IFNγ (primary human iNKT cells) | secretion of IL-4 (primary human iNKT cells) | secretion of IL-6 (primary human iNKT cells) | secretion of TNFα (primary human iNKT cells) | Primary iNKT cytokine release (primary human iNKT cells) | IL-2 Secretion (A20 + DN3.2) (DN3.2) | GFP expression compared to the negative control (human iTCR [1]) | % GFP hiNKT binding (BWSTIM + JiNKT) 1 μg/mL, away from negative control (human iTCR [1]) | accumulation of senescent cells (C12FDG+) in eWAT (senescent cells in eWAT) | killing of senescent vs non-senescent cells by iNKT cells activated by the compound (senescent cells; evaluated after 8 hours and 18 hours, FIG. 7B) | presence of senescent vs non-senescent cells on incubation with iNKT cells activated by the compound (senescent cells; over a period of 18 hours, FIG. 7A) | % GFP hiNKT binding (BWSTIM + JiNKT) 1 μg/mL (human iTCR [1]; % GFP) | levels of IFNγ in the HFD model (IFNγ; twenty hours post injection, FIG. 5D) | levels of serum IFNγ in the HFD model (IFNγ; two hours post injection, FIG. 5C) | expansion of immune (iNKT) cells in HFD mouse spleen (iNKT cells; FIG. 5A) | expansion of immune (iNKT) cells in HFD mouse eWAT (iNKT cells; percent iNKT cells of live cells, FIG. 5B) | % GFP hiNKT binding (recombinant protein CD1d + JiNKT) (human iTCR [2]) | expression of IL-2 in the DN3.2 cell line when loaded on BWSTIM CD1d (mouse iTCR)
1 | CCCCCCCCCCCCCCCCCCCCCCCCCC(=O)N[C@@H](CCC1OC(CO)C(O)C(O)C1O)[C@@H](O)[C@H](O)CCCCCCCCCCCCCC (stereo partly shown) [GVK1a] | did not increase secretion | did not increase secretion | did not increase secretion | did not increase secretion | No activation | Activated | did not induce GFP expression higher than the negative control | % <5 away from | – | – | – | – | – | – | – | – | – | –
2 | CCCCCCCCCCCCCCCCCCCCCCCCCC(=O)N[C@@H](CO[C@H]1O[C@H](CO)[C@H](O)[C@H](O)[C@H]1O)[C@H](O)[C@H](O)CCCCCCCCCCCCCC [α-GalCer, Alpha-galactosylceramide, reference compound] | significantly greater increase in the secretion | significantly greater increase in the secretion | significantly greater increase in the secretion | significantly greater increase in the secretion | – | – | induction remained high | – | effective in decreasing the accumulation of senescent cells in eWAT | senescent cells were selectively killed whereas non-senescent cells were maintained | reduction in the presence of senescent cells over time whereas non-senescent cells were maintained | % 40-70 | significantly increased levels of IFNγ | significantly increased levels of IFNγ | caused expansion of immune cells in HFD mouse spleen | caused expansion of immune cells in HFD mouse eWAT | % 30 | –
3 | CCCCCCCCCCCCCCCCCCCCCCCCCC(=O)N[C@@H](CCC1OC(CO)C(O)C(O)C1O)[C@@H](O)[C@H](O)CCCCCCCCCCCCCC (stereo partly shown) [GVK1b] | did not increase secretion | did not increase secretion | did not increase secretion | did not increase secretion | No activation | Does not | did not induce GFP expression higher than the negative control | % <5 away from | – | – | – | – | – | – | – | – | – | did not induce expression of IL-2
